# In patent US6780875B2, “Quinoline-4-carboxamide derivatives as NK-3 and NK-2 receptor antagonists” (SmithKline Beecham S.p.A., priority 1998, dated 2004):
row,Compound,melting point
1,"CC(C)[C@H](NC(=O)c1c(CN2CCN(C(=O)c3ccccc3C(=O)O)CC2)c(-c2ccccc2)nc2ccccc12)c1ccccc1 [Example 86, 2-(1-{4-[4-((S)-2-Methyl-1-phenyl-propylcarbamoyl)-2-phenyl-quinolin-3-ylmethyl]-piperazin-1-yl}-methanoyl)-benzoic acid]",189 to 191 °C
2,"C[C@H](NC(=O)c1c(CN2CCN(C(=O)c3ccccc3C(=O)O)CC2)c(-c2ccccc2)nc2ccccc12)C1CCCCC1 [Example 87, 2-(1-{4-[4-((S)-1-Cyclohexyl-ethylcarbamoyl)-2-phenyl-quinolin-3-ylmethyl]-piperazin-1-yl}-methanoyl)-benzoic acid]",209 to 211 °C
3,"COc1ccc2c(C(=O)N[C@@H](C)C3CCCCC3)c(CN3CCC(N4CCCCC4)CC3)c(-c3ccccc3)nc2c1 [Example 88, 3-[1,4′]Bipiperidinyl-1′-ylmethyl-7-methoxy-2-phenyl--quinoline-4-carboxylic acid ((S)-1-cyclohexyl-ethyl)-amide]",139 to 144 °C (dec.)
4,"CC[C@H](NC(=O)c1c(CN2CCC(N3CCCCC3)CC2)c(-c2ccccc2)nc2c(Cl)c(O)ccc12)c1ccccc1 [Example 89, 3-[1,4′]Bipiperidinyl-1′-ylmethyl-8-chloro-7-hydroxy-2-phenyl-quinoline-4-carboxylic acid ((S)-1-phenyl-propyl)-amide]",209 to 216 °C (dec.)
5,"CC[C@H](NC(=O)c1c(CN2CCN(S(N)(=O)=O)CC2)c(-c2ccccc2)nc2ccccc12)c1ccccc1 [Example 90, 2-Phenyl-3-(4-sulfamoyl-piperazin-1-ylmethyl)-quinoline-4-carboxylic acid ((S)-1-phenyl-propyl)-amide]",133 °C (dec.)
6,"CC[C@H](NC(=O)c1c(CN2CCN(S(=O)(=O)N(C)C)CC2)c(-c2ccccc2)nc2ccccc12)c1ccccc1 [Example 91, 3-(4-Dimethylsulfamoyl-piperazin-1-ylmethyl)-2-phenyl-quinoline-4-carboxylic acid ((S)-1-phenyl-propyl)-amide]",107 to 111 °C (dec.)
7,"C[C@H](NC(=O)c1c(CN2CCN(CC(=O)O)CC2)c(-c2ccccc2)nc2ccccc12)C1CCCCC1 [Example 92, {4-[4-((S)-1-Cyclohexyl-ethylcarbamoyl)-2-phenyl-quinolin-3-ylmethyl]-piperazin-1-yl}-acetic acid]",188 to 195 °C
8,"CC[C@H](NC(=O)c1c(CN2CCC(N3CCCCC3)CC2)c(-c2ccccc2)nc2cc(O)ccc12)c1ccccc1 [Example 95, 3-[1,4′]Bipiperidinyl-1′-ylmethyl-7-hydroxy-2-phenyl-quinoline-4-carboxylic acid ((S)-1-phenyl-propyl)-amide]",158 to 162 °C
